ChEMBL document CHEMBL3860050, “Triterpenoids from Momordica balsamina: Reversal of ABCB1-mediated multidrug resistance” (Bioorg Med Chem, 2016)

Tests used:
[1] = target: T1, ATP-dependent translocase ABCB1 (Homo sapiens, UniProt P08183); assay: Inhibition of MDR1-mediated efflux-pump activity in mouse L5178Y cells expressing human MDR1 assessed as forward scattered light at 20 uM preincubated for 10 mins followed by rhodamine-123 addition measured after 20 mins by flow cytometry (reference value: 455.7 to 509.9); assay type: cell-based
[2] = target: T1, ATP-dependent translocase ABCB1; assay: Inhibition of MDR1-mediated efflux-pump activity in mouse L5178Y cells expressing human MDR1 assessed as forward scattered light at 2 uM preincubated for 10 mins followed by rhodamine-123 addition measured after 20 mins by flow cytometry (reference value: 455.7 to 509.9); assay type: cell-based
[3] = Antiproliferative activity against mouse L5178Y cells expressing human MDR1 measured after 72 hrs by MTT assay; assay type: functional, cell-based
[4] = Antiproliferative activity against mouse L5178Y cells measured after 72 hrs by MTT assay; assay type: functional, cell-based
[5] = target: T1, ATP-dependent translocase ABCB1; assay: Inhibition of MDR1-mediated efflux-pump activity in mouse L5178Y cells expressing human MDR1 assessed as side scattered light at 2 uM preincubated for 10 mins followed by rhodamine-123 addition measured after 20 mins by flow cytometry (reference value: 194.6 to 286.4); assay type: cell-based
[6] = target: T1, ATP-dependent translocase ABCB1; assay: Inhibition of MDR1-mediated efflux-pump activity in mouse L5178Y cells expressing human MDR1 assessed as side scattered light at 20 uM preincubated for 10 mins followed by rhodamine-123 addition measured after 20 mins by flow cytometry (reference value: 194.6 to 286.4); assay type: cell-based
[7] = target: T1, ATP-dependent translocase ABCB1; assay: Inhibition of MDR1-mediated efflux-pump activity in mouse L5178Y cells expressing human MDR1 assessed as mean fluorescence intensity at 2 uM preincubated for 10 mins followed by rhodamine-123 addition measured after 20 mins by flow cytometry (reference value: 7.1 to 18.6); assay type: cell-based
[8] = target: T1, ATP-dependent translocase ABCB1; assay: Inhibition of MDR1-mediated efflux-pump activity in mouse L5178Y cells expressing human MDR1 assessed as mean fluorescence intensity at 20 uM preincubated for 10 mins followed by rhodamine-123 addition measured after 20 mins by flow cytometry (reference value: 7.1 to 18.6); assay type: cell-based
[9] = target: T1, ATP-dependent translocase ABCB1; assay: Inhibition of MDR1-mediated efflux-pump activity in mouse L5178Y cells expressing human MDR1 assessed as fluorescence activity ratio at 2 uM preincubated for 10 mins followed by rhodamine-123 addition measured after 20 mins by flow cytometry; assay type: cell-based
[10] = target: T1, ATP-dependent translocase ABCB1; assay: Inhibition of MDR1-mediated efflux-pump activity in mouse L5178Y cells expressing human MDR1 assessed as fluorescence activity ratio at 20 uM preincubated for 10 mins followed by rhodamine-123 addition measured after 20 mins by flow cytometry; assay type: cell-based
[11] = target: T1, ATP-dependent translocase ABCB1; assay: Inhibition of MDR1 in mouse L5178Y cells expressing human MDR1 assessed as doxorubicin-induced antiproliferative activity by measuring combination index at 5.7:1 compound to doxorubicin ratio measured after 48 hrs by MTT assay; assay type: cell-based
[12] = target: T1, ATP-dependent translocase ABCB1; assay: Inhibition of MDR1 in mouse L5178Y cells expressing human MDR1 assessed as doxorubicin-induced antiproliferative activity by measuring combination index at 1.4:1 compound to doxorubicin ratio measured after 48 hrs by MTT assay; assay type: cell-based
[13] = target: T1, ATP-dependent translocase ABCB1; assay: Inhibition of MDR1 in mouse L5178Y cells expressing human MDR1 assessed as doxorubicin-induced antiproliferative activity by measuring combination index at 11.3:1 compound to doxorubicin ratio measured after 48 hrs by MTT assay; assay type: cell-based

T1 sequence (P08183 whole entry): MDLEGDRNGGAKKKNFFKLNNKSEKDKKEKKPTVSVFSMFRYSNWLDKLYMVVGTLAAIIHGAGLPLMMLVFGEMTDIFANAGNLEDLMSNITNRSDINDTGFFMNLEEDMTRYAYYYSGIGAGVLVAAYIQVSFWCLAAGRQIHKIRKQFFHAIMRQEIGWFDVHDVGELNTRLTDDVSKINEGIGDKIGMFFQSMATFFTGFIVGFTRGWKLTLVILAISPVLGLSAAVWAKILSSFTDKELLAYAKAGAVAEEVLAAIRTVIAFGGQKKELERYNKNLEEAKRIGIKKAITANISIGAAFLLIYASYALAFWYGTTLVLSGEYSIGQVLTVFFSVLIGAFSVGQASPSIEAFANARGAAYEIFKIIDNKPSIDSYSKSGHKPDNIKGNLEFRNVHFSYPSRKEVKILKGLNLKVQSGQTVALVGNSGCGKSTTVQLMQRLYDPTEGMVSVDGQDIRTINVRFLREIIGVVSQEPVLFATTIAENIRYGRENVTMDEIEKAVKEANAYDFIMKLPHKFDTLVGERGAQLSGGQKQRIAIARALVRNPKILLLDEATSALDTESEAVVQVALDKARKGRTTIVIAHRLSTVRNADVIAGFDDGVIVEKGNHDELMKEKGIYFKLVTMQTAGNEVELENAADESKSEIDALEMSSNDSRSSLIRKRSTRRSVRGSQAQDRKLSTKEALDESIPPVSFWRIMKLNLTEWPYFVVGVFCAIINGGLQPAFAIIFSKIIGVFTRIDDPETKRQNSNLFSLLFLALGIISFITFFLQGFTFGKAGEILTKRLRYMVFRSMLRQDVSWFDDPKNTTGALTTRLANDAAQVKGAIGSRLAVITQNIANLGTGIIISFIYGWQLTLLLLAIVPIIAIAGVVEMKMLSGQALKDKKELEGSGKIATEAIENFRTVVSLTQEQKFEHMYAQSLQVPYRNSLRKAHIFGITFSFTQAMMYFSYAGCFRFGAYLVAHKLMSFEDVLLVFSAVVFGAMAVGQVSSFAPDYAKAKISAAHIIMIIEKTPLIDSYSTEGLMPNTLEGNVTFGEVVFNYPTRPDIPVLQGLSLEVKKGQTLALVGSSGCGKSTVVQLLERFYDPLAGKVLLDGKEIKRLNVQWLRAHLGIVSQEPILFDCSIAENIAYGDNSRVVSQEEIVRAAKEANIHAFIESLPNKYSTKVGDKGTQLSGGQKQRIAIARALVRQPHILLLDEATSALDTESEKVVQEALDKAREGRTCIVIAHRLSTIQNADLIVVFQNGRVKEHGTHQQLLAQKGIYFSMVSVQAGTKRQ

SMILES | Activity [1] | Activity [2] | IC50 [3] [µM] | IC50 [4] [µM] | Activity [5] | Activity [6] | Flu intensity [7] | Flu intensity [8] | Ratio [9] | Ratio [10] | CI [11] | CI [12] | CI [13]
CO[C@H]1C=C2[C@@H](CC[C@H](O)C2(C)C)[C@]2(C)CC[C@]3(C)[C@@H]([C@H](C)C[C@H](C=C(C)C)O[C@@H]4O[C@H](CO)[C@@H](O)[C@H](O)[C@H]4O)CC[C@@]3(C)[C@H]12 | 457.3 | 446.8 | 32.8 | 3.5 | 266.8 | 269.2 | 12.4 | 643.1 | 1 | 49.1 | 0.956 |  | 
CC(C)=C[C@H](O)C[C@@H](C)[C@H]1CC[C@@]2(C)[C@@H]3C=C[C@@]45OC[C@]3(CC[C@]12C)[C@@H]4CC[C@H](O)C5(C)C [KARAVILAGENIN E] | 474 | 568.8 | 45.2 | 21.3 | 234.2 | 242 | 38.4 | 743.8 | 3.8 | 72.6 | 0.437 |  | 
CC(C)=C[C@H](O)C[C@@H](C)[C@H]1CC[C@@]2(C)[C@@H]3C(=O)C=C4[C@@H](CC[C@H](O)C4(C)C)[C@]3(C)CC[C@]12C [BALSAMINOL E] | 593 | 582.7 | 55.2 | 41.3 | 243.4 | 234.5 | 20.8 | 663.1 | 2 | 64.8 | 0.721 |  | 
CO[C@H]1C=C2[C@@H](CC[C@H](O)C2(C)C)[C@]2(C)C[C@@H](O)[C@]3(C)[C@@H]([C@H](C)C[C@@H](O)C=C(C)C)CC[C@@]3(C)[C@H]12 [CUCURBALSAMINOL C] | 564.3 | 568.5 | 34.6 | 19.5 | 241.8 | 237.6 | 31.6 | 202.8 | 3.1 | 19.8 | 0.416 |  | 
CO[C@H]1C=C2[C@@H](CC[C@H](O)C2(C)C)[C@]2(C)C[C@@H](O)[C@]3(C)[C@@H]([C@H](C)C/C=C/C(C)(C)O)CC[C@@]3(C)[C@H]12 | 585 | 568.6 | 46.3 | 44.4 | 249.6 | 235.8 | 27.2 | 391.6 | 2.7 | 38.2 |  | 0.393 | 
CC(C)=C[C@H](O)C[C@@H](C)[C@H]1CC[C@@]2(C)[C@@H]3[C@@H](O)C=C4[C@@H](CC[C@H](O)[C@]4(C)CO)[C@]3(C)CC[C@]12C [BALSAMINOL A] | 454.5 | 432.9 | 12.6 | 7.2 | 259 | 260 | 20.1 | 766.1 | 1.5 | 47.6 |  |  | 0.503
CC(C)=CC(=O)C[C@@H](C)[C@H]1CC[C@@]2(C)[C@@H]3C(=O)C=C4[C@@H](CC[C@H](O)[C@]4(C)CO)[C@]3(C)CC[C@]12C [BALSAMINOL C] | 502.2 | 502.3 | 42.6 | 19 | 205.4 | 195.7 | 22.3 | 1537.8 | 2.9 | 198.9 | 0.268 |  | 
CO[C@H]1C=C2[C@@H](CC[C@H](O)[C@]2(C)CO)[C@]2(C)CC[C@]3(C)[C@@H]([C@H](C)C[C@@H](O)C=C(C)C)CC[C@@]3(C)[C@H]12 [BALSAMINOL B] | 461.8 | 439.5 | 31 | 7.7 | 258.8 | 260.7 | 95.7 | 899.1 | 7.3 | 68.7 |  | 0.378 | 
C[C@H](C/C=C/C(C)(C)O)[C@H]1CC[C@@]2(C)[C@@H]3[C@@H](O)C=C4[C@@H](CC[C@H](O)C4(C)C)[C@]3(C)CC[C@]12C | 395.2 | 570.5 | 27.4 | 18.7 | 249 | 243.9 | 73.1 | 368.4 | 7.1 | 36 | 0.71 |  | 
CCCC(=O)O[C@H]1CC[C@@H]2C(=C[C@H](OC)[C@@H]3[C@@]2(C)CC[C@]2(C)[C@@H]([C@H](C)C[C@H](C=C(C)C)OC(=O)CCC)CC[C@@]32C)C1(C)C [KARAVOATE F] | 541 | 542.6 | > 133 | 93.2 | 218.3 | 218.7 | 10.8 | 12.3 | 1.4 | 1.6 |  |  | 
CO[C@H]1C=C2[C@@H](CC[C@H](O)C2(C)C)[C@]2(C)CC[C@]3(C)[C@@H]([C@H](C)C[C@H](C=C(C)C)OC(=O)c4ccc(Cl)cc4)CC[C@@]3(C)[C@H]12 [KARAVOATE K] | 511.1 | 517.9 | 93.2 | 63.4 | 207 | 210.8 | 10.7 | 12.2 | 1.4 | 1.6 |  |  | 
CO[C@H]1C=C2[C@@H](CC[C@H](O)C2(C)C)[C@]2(C)CC[C@]3(C)[C@@H]([C@H](C)C[C@H](C=C(C)C)OC(=O)/C=C/c4ccccc4)CC[C@@]3(C)[C@H]12 [KARAVOATE O] | 505.9 | 496.9 | 90 | > 133 | 197.9 | 206.9 | 10 | 11 | 1.3 | 1.4 |  |  | 
COc1ccc(C(=O)O[C@@H](C=C(C)C)C[C@@H](C)[C@H]2CC[C@@]3(C)[C@@H]4[C@@H](OC)C=C5[C@@H](CC[C@H](O)C5(C)C)[C@]4(C)CC[C@]23C)cc1 [KARAVOATE M] | 531.9 | 526 | 87.5 | 59.4 | 192.3 | 181.8 | 12.3 | 11.4 | 1.8 | 1.7 |  |  | 
